Measurements published in BigSolDB 2.1.

Work on `COC(=O)Nc1nc2ccc(Sc3ccccc3)cc2[nH]1` yielded a solubility (mole fraction) (in 1,4-dioxane, 288.15 K) of 0.0011, a solubility (mole fraction) (in 1,4-dioxane, 293.15 K) of 0.00127 and a solubility (mole fraction) (in 1,4-dioxane, 298.15 K) of 0.00145. It also gave a solubility (mole fraction) (in 1,4-dioxane, 303.15 K) of 0.00166, a solubility (mole fraction) (in 1,4-dioxane, 308.15 K) of 0.00189 and a solubility (mole fraction) (in 1,4-dioxane, 313.15 K) of 0.00214. For the same compound, the solubility (mole fraction) (in acetone, 273.15 K) was 0.000154, the solubility (mole fraction) (in acetone, 278.15 K) was 0.000167 and the solubility (mole fraction) (in acetone, 283.15 K) was 0.00018. The solubility (mole fraction) (in acetone, 288.15 K) was 0.000194, the solubility (mole fraction) (in acetone, 293.15 K) was 0.000209 and the solubility (mole fraction) (in acetone, 298.15 K) was 0.000225. For the same compound, the solubility (mole fraction) (in acetone, 303.15 K) was 0.000241, the solubility (mole fraction) (in acetone, 308.15 K) was 0.00026 and the solubility (mole fraction) (in acetone, 313.15 K) was 0.00028. For the same compound, the solubility (mole fraction) (in acetonitrile, 273.15 K) was 1.31e-05, the solubility (mole fraction) (in acetonitrile, 278.15 K) was 1.53e-05 and the solubility (mole fraction) (in acetonitrile, 283.15 K) was 1.79e-05. For the same compound, the solubility (mole fraction) (in acetonitrile, 288.15 K) was 2.06e-05, the solubility (mole fraction) (in acetonitrile, 293.15 K) was 2.36e-05 and the solubility (mole fraction) (in acetonitrile, 298.15 K) was 2.68e-05. It also gave a solubility (mole fraction) (in acetonitrile, 303.15 K) of 3.06e-05, a solubility (mole fraction) (in acetonitrile, 308.15 K) of 3.47e-05 and a solubility (mole fraction) (in acetonitrile, 313.15 K) of 3.99e-05. It also gave a solubility (mole fraction) (in ethanol, 273.15 K) of 4.24e-05, a solubility (mole fraction) (in ethanol, 278.15 K) of 4.62e-05 and a solubility (mole fraction) (in ethanol, 283.15 K) of 5.02e-05. It also gave a solubility (mole fraction) (in ethanol, 288.15 K) of 5.44e-05, a solubility (mole fraction) (in ethanol, 293.15 K) of 5.92e-05 and a solubility (mole fraction) (in ethanol, 298.15 K) of 6.41e-05. It also gave a solubility (mole fraction) (in ethanol, 303.15 K) of 6.99e-05, a solubility (mole fraction) (in ethanol, 308.15 K) of 7.62e-05 and a solubility (mole fraction) (in ethanol, 313.15 K) of 8.36e-05. For the same compound, the solubility (mole fraction) (in ethyl acetate, 273.15 K) was 0.000266, the solubility (mole fraction) (in ethyl acetate, 278.15 K) was 0.000308 and the solubility (mole fraction) (in ethyl acetate, 283.15 K) was 0.000361. The solubility (mole fraction) (in ethyl acetate, 288.15 K) was 0.000415, the solubility (mole fraction) (in ethyl acetate, 293.15 K) was 0.000468 and the solubility (mole fraction) (in ethyl acetate, 298.15 K) was 0.000533. The solubility (mole fraction) (in ethyl acetate, 303.15 K) was 0.000601, the solubility (mole fraction) (in ethyl acetate, 308.15 K) was 0.000684 and the solubility (mole fraction) (in ethyl acetate, 313.15 K) was 0.000768. It also gave a solubility (mole fraction) (in isopropanol, 273.15 K) of 2.01e-05, a solubility (mole fraction) (in isopropanol, 278.15 K) of 2.39e-05 and a solubility (mole fraction) (in isopropanol, 283.15 K) of 2.8e-05. The solubility (mole fraction) (in isopropanol, 288.15 K) was 3.24e-05, the solubility (mole fraction) (in isopropanol, 293.15 K) was 3.65e-05 and the solubility (mole fraction) (in isopropanol, 298.15 K) was 4.12e-05. For the same compound, the solubility (mole fraction) (in isopropanol, 303.15 K) was 4.62e-05, the solubility (mole fraction) (in isopropanol, 308.15 K) was 5.2e-05 and the solubility (mole fraction) (in isopropanol, 313.15 K) was 5.82e-05. It also gave a solubility (mole fraction) (in methanol, 273.15 K) of 3.69e-05, a solubility (mole fraction) (in methanol, 278.15 K) of 3.99e-05 and a solubility (mole fraction) (in methanol, 283.15 K) of 4.28e-05. The solubility (mole fraction) (in methanol, 288.15 K) was 4.57e-05, the solubility (mole fraction) (in methanol, 293.15 K) was 4.86e-05 and the solubility (mole fraction) (in methanol, 298.15 K) was 5.14e-05. The solubility (mole fraction) (in methanol, 303.15 K) was 5.54e-05, the solubility (mole fraction) (in methanol, 308.15 K) was 5.94e-05 and the solubility (mole fraction) (in methanol, 313.15 K) was 6.33e-05. It also gave a solubility (mole fraction) (in n-butanol, 273.15 K) of 7.43e-05, a solubility (mole fraction) (in n-butanol, 278.15 K) of 8.03e-05 and a solubility (mole fraction) (in n-butanol, 283.15 K) of 8.71e-05. The solubility (mole fraction) (in n-butanol, 288.15 K) was 9.47e-05, the solubility (mole fraction) (in n-butanol, 293.15 K) was 0.000102 and the solubility (mole fraction) (in n-butanol, 298.15 K) was 0.000111. For the same compound, the solubility (mole fraction) (in n-butanol, 303.15 K) was 0.00012, the solubility (mole fraction) (in n-butanol, 308.15 K) was 0.000132 and the solubility (mole fraction) (in n-butanol, 313.15 K) was 0.000143. The solubility (mole fraction) (in n-propanol, 273.15 K) was 5.94e-05, the solubility (mole fraction) (in n-propanol, 278.15 K) was 6.58e-05 and the solubility (mole fraction) (in n-propanol, 283.15 K) was 7.33e-05. The solubility (mole fraction) (in n-propanol, 288.15 K) was 8.16e-05, the solubility (mole fraction) (in n-propanol, 293.15 K) was 8.97e-05 and the solubility (mole fraction) (in n-propanol, 298.15 K) was 9.97e-05. It also gave a solubility (mole fraction) (in n-propanol, 303.15 K) of 0.000111, a solubility (mole fraction) (in n-propanol, 308.15 K) of 0.000123 and a solubility (mole fraction) (in n-propanol, 313.15 K) of 0.000137.
